According to patent US20240174648A1, “Small Molecule Compound” (Technoderma Medicines Pte Ltd, priority 2019, published 2024):

Tests used:
Tyk2 = Tyk2 (Homo sapiens, UniProt P29597); test: JAK kinase inhibition assay (EZ Reader, peptide substrate phosphorylation) - Tyk2; assay type: biochemical; conditions: Tyk2 kinase 1 nM; 8 concentration points, max 10 μM
Source text: (§1) Assay for Identifying Inhibitory Effects of Compounds on JAK Kinases
(§2) Janus kinases (JAK), including JAK1, JAK2, JAK3 and Tyk2, transduce a cytokine-mediated signal through a JAK-STAT pathway. The kinases are 120-140 kDa in size and have 7 determined homology regions: JH1 to JH7. JH1 is an important region for enzymatic activity and has typical characteristics of tyrosine kinases. Phosphorylation of tyrosine leads to a change in the conformation of JAK protein, thereby promoting binding of substrate. The JAK-STAT system includes three main parts: receptors penetrating a cell membrane, Janus kinases binding to the receptors, and signal transducers and activators of transcription (STAT) for transmitting signals to a nucleus and DNA. When cytokines bind to receptors, JAK phosphorylates the receptors and attracts STAT proteins. The STAT proteins are also phosphorylated and combined with one another to form dimers. The dimers enter the nucleus and bind to DNA, thereby leading to gene transcription.
(§3) EZ Reader from PerkinElmer can be used to detect the phosphorylation of polypeptide substrates catalyzed by kinases. The device is based on microfluidic techniques, and can directly detect fluorescently labeled substrates and products. The separation step is achieved by controlling the pressure and electric field strength in the microfluidic chip. In kinase assays, a product conversion ratio is usually controlled to be 20-30%. A biological test is used to identify inhibitory effects of compounds on JAKs.
(§4) Compound powder was dissolved in DMSO, sealed and stored in a freezer under −20° C. The in-house compound Ref1 was used as a positive control for JAK1, JAK2 and Tyk2 tests, and Ref2 was used as a positive control for JAK3 tests.
(§5) S2.8. Assay buffer: 20 mM HEPES buffer, pH 7.4, 10 mM magnesium chloride, 0.01% bovine serum albumin BSA, 0.0005% Tween-20 and 1 mM dithiothreitol solution.
(§6) S2.9. Stop buffer: 180 mM HEPES buffer, 20 mM ethylenediaminetetraacetic acid and 0.2% coating reagent 3.
(§7) S2.10. Separation buffer: 100 mM HEPES buffer, 10 mM ethylenediaminetetraacetic acid, 0.0005% Tween 20, 0.1% coating reagent 3 and 1% dimethyl sulfoxide.
(§8) The compound was dissolved in dimethyl sulfoxide and diluted to 10 mM concentration, a certain volume of solution was taken and diluted to 0.6 mM concentration, 10 μL of the 0.6 mM dilution was added to a 384-well microplate, and then was diluted 3-fold with a total of 8 concentration points.
(§9) Positive control (HPE1): Ref1, final concentration: 10 μM […]
(§10) Negative control (ZPE): DMSO, final content: 1.6%
(§11) Compounds: maximum final concentration: 10 μM; 3-fold dilution, 8 concentration points and 2 duplicates.
(§12) S4.1. 250 nL of the compound was added to each well of the assay microplate by using ECHO, and centrifuged at 1000 rpm for 1 minute.
(§13) S4.2. 5 μL of the assay buffer was added and agitated for a few seconds to fully dissolve the compound.
(§14) S4.3. 5 μL of 3× substrate solution and 5 μL of 3× kinase solution were added and centrifuged at 800 rpm for 1 minute.
(§15) S4.4. Final concentrations of JAK1, JAK2, JAK3 and Tyk2 kinases in the reaction system were 20 nM, 1 nM, 1 nM and 1 nM respectively.
(§16) S4.5. Incubation at room temperature, where kinases had time differences, and different batches of kinases had time differences.
(§17) S4.6. When 20%-30% of the reaction completed, 15 μL of stop buffer was added to stop the reaction, and centrifuged at 1000 rpm for 2 minutes.
(§18) S4.7. The microplates were placed on EZ Reader for reading.
(§19) S4.8. Readings on EZ Reader were calculated by using a peak height, where product conversion ratio (%)=product/(product+substrate)*100.
(§20) 5. Data Processing: IC50 calculation
(§21) A graphing software Xlfit was used to form a concentration curve of the test compound, and an IC50 value was calculated.
(§22) “A” means “≥10 μM”; “B” means “≥1 μM and <10 μM”; “C” means “≥0.1 μM and <1 μM”; and “D” means “<0.1 μM”.

JAK1 = JAK1 (Homo sapiens, UniProt P23458); test: JAK kinase inhibition assay (EZ Reader, peptide substrate phosphorylation) - JAK1; assay type: biochemical; conditions: JAK1 kinase 20 nM; 8 concentration points, max 10 μM
Source text: as §1, §2, §3, §4, §5, §6, §7, §8, §9, §10, §11, §12, §13, §14, §15, §16, §17, §18, §19, §20, §21, §22

Chain of Tyk2 (P29597 whole entry): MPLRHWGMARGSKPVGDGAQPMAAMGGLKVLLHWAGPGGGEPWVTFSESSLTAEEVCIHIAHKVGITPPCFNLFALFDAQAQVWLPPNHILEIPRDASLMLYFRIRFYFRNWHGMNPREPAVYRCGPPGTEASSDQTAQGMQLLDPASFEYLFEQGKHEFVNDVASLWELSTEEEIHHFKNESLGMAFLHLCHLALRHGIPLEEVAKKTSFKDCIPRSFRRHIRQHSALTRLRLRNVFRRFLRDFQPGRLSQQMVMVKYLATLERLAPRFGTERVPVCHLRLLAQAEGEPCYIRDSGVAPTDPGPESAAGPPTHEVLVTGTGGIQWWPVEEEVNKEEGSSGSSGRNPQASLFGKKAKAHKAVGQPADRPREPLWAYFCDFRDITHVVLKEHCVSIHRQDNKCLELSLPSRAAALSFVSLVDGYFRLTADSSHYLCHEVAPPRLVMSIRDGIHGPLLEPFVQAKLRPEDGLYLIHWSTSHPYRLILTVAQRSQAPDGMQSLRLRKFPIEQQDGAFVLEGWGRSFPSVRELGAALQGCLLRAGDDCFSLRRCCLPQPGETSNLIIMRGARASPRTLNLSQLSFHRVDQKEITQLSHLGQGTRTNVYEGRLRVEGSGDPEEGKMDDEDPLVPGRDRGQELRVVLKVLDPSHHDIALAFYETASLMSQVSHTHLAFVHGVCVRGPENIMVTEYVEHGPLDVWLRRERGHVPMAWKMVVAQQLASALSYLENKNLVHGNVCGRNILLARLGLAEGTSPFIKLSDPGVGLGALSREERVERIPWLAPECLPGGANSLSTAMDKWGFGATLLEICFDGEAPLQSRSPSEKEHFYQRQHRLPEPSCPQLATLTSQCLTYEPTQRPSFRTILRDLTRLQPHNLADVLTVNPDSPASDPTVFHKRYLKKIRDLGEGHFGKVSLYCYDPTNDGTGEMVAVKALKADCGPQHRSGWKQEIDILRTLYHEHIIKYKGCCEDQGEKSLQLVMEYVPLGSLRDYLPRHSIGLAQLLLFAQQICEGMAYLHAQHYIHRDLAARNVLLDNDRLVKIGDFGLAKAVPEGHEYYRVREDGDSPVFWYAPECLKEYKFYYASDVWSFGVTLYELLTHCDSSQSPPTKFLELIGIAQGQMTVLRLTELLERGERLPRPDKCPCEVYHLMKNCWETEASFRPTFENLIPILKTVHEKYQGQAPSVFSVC
Chain of JAK1 (P23458 whole entry): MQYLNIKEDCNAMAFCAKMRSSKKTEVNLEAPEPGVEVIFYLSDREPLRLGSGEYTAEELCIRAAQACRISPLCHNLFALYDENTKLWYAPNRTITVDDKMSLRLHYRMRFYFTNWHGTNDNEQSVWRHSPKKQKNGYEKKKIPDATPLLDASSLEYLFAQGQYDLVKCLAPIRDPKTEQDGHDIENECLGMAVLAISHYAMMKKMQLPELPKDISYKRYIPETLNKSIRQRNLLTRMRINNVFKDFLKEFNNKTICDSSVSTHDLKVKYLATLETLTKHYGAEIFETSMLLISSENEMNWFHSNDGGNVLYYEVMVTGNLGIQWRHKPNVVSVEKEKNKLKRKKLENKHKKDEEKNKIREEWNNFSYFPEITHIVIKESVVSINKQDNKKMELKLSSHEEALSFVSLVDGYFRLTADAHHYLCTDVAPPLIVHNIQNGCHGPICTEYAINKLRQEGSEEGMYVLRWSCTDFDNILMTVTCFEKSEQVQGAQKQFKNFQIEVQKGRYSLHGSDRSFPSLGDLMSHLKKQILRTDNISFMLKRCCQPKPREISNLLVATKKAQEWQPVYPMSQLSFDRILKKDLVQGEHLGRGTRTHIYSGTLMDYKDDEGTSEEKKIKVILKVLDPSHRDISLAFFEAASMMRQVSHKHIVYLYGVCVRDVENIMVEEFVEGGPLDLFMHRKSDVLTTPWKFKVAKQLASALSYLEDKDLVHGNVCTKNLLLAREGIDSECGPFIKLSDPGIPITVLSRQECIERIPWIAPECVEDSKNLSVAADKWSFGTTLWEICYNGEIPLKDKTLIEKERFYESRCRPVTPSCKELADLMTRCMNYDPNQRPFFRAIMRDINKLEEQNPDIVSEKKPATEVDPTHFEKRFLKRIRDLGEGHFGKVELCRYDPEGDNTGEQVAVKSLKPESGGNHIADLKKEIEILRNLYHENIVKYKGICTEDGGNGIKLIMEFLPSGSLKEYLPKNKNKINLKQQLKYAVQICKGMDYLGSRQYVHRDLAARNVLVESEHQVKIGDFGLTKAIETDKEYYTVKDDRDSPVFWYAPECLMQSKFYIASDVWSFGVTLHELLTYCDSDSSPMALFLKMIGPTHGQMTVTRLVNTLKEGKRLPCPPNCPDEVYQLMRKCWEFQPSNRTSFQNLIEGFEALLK

Compound | IC50 (Tyk2) [µM] | IC50 (JAK1) [µM]
Cn1cc(Nc2nccc(-c3ccc(NC(=O)CO)cc3)n2)cn1 [TDM-180791, 2-hydroxy-N-(4-(2-((1-methyl-1H-pyrazol-4-yl)amino)pyrimidin-4-yl)phenyl)acetamide] | 1 to 10 | 0.1 to 1
Cn1cc(Nc2nccc(-c3ccc(NC(=O)C4CC4)c4[nH]ncc34)n2)cn1 [TDM-180884, N-(4-(2-((1-methyl-1H-pyrazol-4-yl)amino)pyrimidin-4-yl)-1H-indazol-7-yl)cyclopropanemethane] | 0.1 to 1 | 0.1 to 1
Cn1cc(Nc2nccc(-c3ccc(NC(=O)CO)nc3)n2)cn1 [TDM-180806, 2-hydroxy-N-(5-(2-((1-methyl-1H-pyrazol-4-yl)amino)pyrimidin-4-yl)pyridin-2-yl)acetamide] | 1 to 10 | 1 to 10
Cn1cc(Nc2nccc(-c3ccc(NC(=O)CC(F)(F)F)c4[nH]ncc34)n2)cn1 [TDM-180900, 3,3,3-trifluoro-N-(4-(2-((1-methyl-1H-pyrazol-4-yl)amino)pyrimidin-4-yl)-1H-indazol-7-yl)propionamide] | 0.1 to 1 | < 0.1
Cc1cc(-c2ccnc(Nc3cnn(C)c3)n2)cnc1NC(=O)CC(F)(F)F [TDM-180908, 3,3,3-trifluoro-N-(3-methyl-5-(2-((1-methyl-1H-pyrazol-4-yl)amino)pyrimidin-4-yl)pyridin-2-yl)propanamide] | 1 to 10 | 0.1 to 1
Cc1cc(-c2ccnc(Nc3cnn(C)c3)n2)cnc1NC(=O)C1CC1(F)F (stereo not shown) [TDM-180906, 2,2-difluoro-N-(3-methyl-5-(2-((1-methyl-1H-pyrazol-4-yl)amino)pyrimidin-4-yl)pyridin-2-yl)cyclopropane-1-carboxamide] | 1 to 10 | 0.1 to 1
CCCS(=O)(=O)Nc1ccc(-c2ccnc(Nc3cnn(C)c3)n2)cn1 [TDM-180901, N-(5-(2-((1-methyl-1H-pyrazol-4-yl)amino)pyrimidin-4-yl)pyridin-2-yl)propane-1-sulfonamide] | ≥ 10 | 1 to 10
Cn1cc(Nc2nccc(-c3ccc(NS(=O)(=O)CCc4ccccc4)cc3)n2)cn1 [TDM-180894, N-(4-(2-((1-methyl-1H-pyrazol-4-yl)amino)pyrimidin-4-yl)phenyl)-2-phenylethane-1-sulfonamide] | 0.1 to 1 | 0.1 to 1
CCS(=O)(=O)Nc1ccc(-c2ccnc(Nc3cnn(C)c3)n2)cn1 [TDM-180829, N-(5-(2-((1-methyl-1H-pyrazol-4-yl)amino)pyrimidin-4-yl)pyridin-2-yl)ethanesulfonamide] | 1 to 10 | 1 to 10
Cn1cc(Nc2nccc(-c3ccc(CN4CCOCC4)cc3)n2)cn1 [TDM-180787, N-(1-methyl-1H-pyrazol-4-yl)-4-(4-(morpholinomethyl)phenyl)pyrimidine-2-amine] | 1 to 10 | 1 to 10
Cn1cc(Nc2nccc(-c3ccnc(NC(=O)C4CC4)c3)n2)cn1 [TDM-180773, N-(4-(2-((1-methyl-1H-pyrazol-4-yl)amino)pyrimidin-4-yl)-pyridin-2-yl)cyclopropanemethane] | ≥ 10 | ≥ 10
Cn1cc(Nc2nccc(-c3ccc(NC(=O)C4CC4)c4cc[nH]c34)n2)cn1 [TDM-180926, N-(7-(2-((1-methyl-1H-pyrazol-4-yl)amino)pyrimidin-4-yl)-1H-indole-4-yl)cyclopropanecarboxamide] | ≥ 10 | ≥ 10

Now from value to compound:

IC50 (Tyk2) [µM] | IC50 (JAK1) [µM] | Compound
1 to 10 | 1 to 10 | Cc1cc(-c2ccnc(Nc3cnn(C)c3)n2)cnc1NC(=O)CC#N [TDM-180907, 2-cyano-N-(3-methyl-5-(2-((1-methyl-1H-pyrazol-4-yl)amino)pyrimidin-4-yl)pyridin-2-yl)acetamide]
0.1 to 1 | 0.1 to 1 | Cn1cc(Nc2nccc(-c3cnc(NC(=O)C4CC4(F)F)c(F)c3)n2)cn1 (stereo not shown) [TDM-180888, 2,2-difluoro-N-(3-fluoro-5-(2-((1-methyl-1H-pyrazol-4-yl)amino)pyrimidin-4-yl)pyridin-2-yl)cyclopropanecarboxamide]
0.1 to 1 | < 0.1 | Cn1cc(Nc2nccc(-c3cnc(NC(=O)C4CC4(F)F)nc3)n2)cn1 (stereo not shown) [TDM-180886, 2,2-difluoro-N-(2-((1-methyl-1H-pyrazol-4-yl)amino)-[4,5′-bipyrimidin]-2′-yl)cyclopropane-1-carboxamide]
0.1 to 1 | < 0.1 | Cn1cc(Nc2nccc(-c3ccc(NC(=O)[C@H]4CC4(F)F)cc3)n2)cn1 [TDM-180936, (R)-2,2-difluoro-N-(4-(2-((1-methyl-1H-pyrazol-4-yl)amino)pyrimidin-4-yl)phenyl)cyclopropane-1-carboxamide]
0.1 to 1 | 0.1 to 1 | Cn1cc(Nc2nccc(-c3ccc(NC(=O)CC#N)c4[nH]ncc34)n2)cn1 [TDM-180898, 2-cyano-N-(4-(2-((1-methyl-1H-pyrazol-4-yl)amino)pyrimidin-4-yl)-1H-indazole-7-yl)acetamide]
0.1 to 1 | 0.1 to 1 | Cn1cc(Nc2nccc(-c3ccc(NS(=O)(=O)CCCF)cc3)n2)cn1 [TDM-180896, 3-fluoro-N-(4-(2-((1-methyl-1H-pyrazol-4-yl)amino)pyrimidin-4-yl)phenyl)propane-1-sulfonamide]
0.1 to 1 | 0.1 to 1 | Cn1cc(Nc2nccc(-c3ccc(NC(=O)CC#N)c4[nH]ccc34)n2)cn1 [TDM-180867, 2-cyano-N-(4-(2-((1-methyl-1H-pyrazol-4-yl)amino)pyrimidin-4-yl)-1H-indol-7-yl)acetamide]
≥ 10 | 1 to 10 | COCC(=O)Nc1ccc(-c2ccnc(Nc3cnn(C)c3)n2)cn1 [TDM-180831, 2-methoxy-N-(5-(2-((1-methyl-1H-pyrazol-4-yl)amino)pyrimidin-4-yl)pyridin-2-yl)acetamide]
1 to 10 | 0.1 to 1 | Cn1cc(Nc2nccc(-c3cnc(NC(=O)CC(F)(F)F)c(F)c3)n2)cn1 [TDM-180889, 3,3,3-trifluoro-N-(3-fluoro-S-(2-((1-methyl-1H-pyrazol-4-yl)amino)pyrimidin-4-yl)pyridin-2-yl)propanamide]
1 to 10 | 0.1 to 1 | Cn1cc(Nc2nccc(-c3cnc(NC(=O)CC(F)(F)F)nc3)n2)cn1 [TDM-180887, 3,3,3-trifluoro-N-(2-((1-methyl-1H-pyrazol-4-yl)amino)-[4,5′-bipyrimidin]-2′-yl)propanamide]
1 to 10 | 0.1 to 1 | COCCC(=O)Nc1ccc(-c2ccnc(Nc3cnn(C)c3)n2)cc1 [TDM-180799, 3-methoxy-N-(4-(2-((1-methyl-1H-pyrazol-4-yl)amino)pyrimidin-4-yl)phenyl)propanamide]
≥ 10 | ≥ 10 | Cn1cc(Nc2nccc(-c3ccnc(NC(=O)CC#N)c3)n2)cn1 [TDM-180774, 2-cyano-N-(4-(2-((1-methyl-1H-pyrazol-4-yl)amino)pyrimidin-4-yl)pyridin-2-yl)acetamide]
1 to 10 | 0.1 to 1 | Cn1cc(Nc2nccc(-c3ccc(NC(=O)CC(F)(F)F)c4cc[nH]c34)n2)cn1 [TDM-180924, 3,3,3-trifluoro-N-(7-(2-((1-methyl-1H-pyrazol-4-yl)amino)pyrimidin-4-yl)-1H-indol-4-yl)propanamide]
< 0.1 | < 0.1 | Cn1cc(Nc2nccc(-c3ccc(NC(=O)C4CC4(F)F)c4[nH]ccc34)n2)cn1 (stereo not shown) [TDM-180868, 2,2-difluoro-N-(4-(2-((1-methyl-1H-pyrazol-4-yl)amino)pyrimidin-4-yl)-1H-indol-7-yl)cyclopropane-1-carboxamide]
